Marks after values point to notes of the source that are not given here.
System: male rats
Experiment: Plasma metabolite profiling (GC-MS, LC-MS, SPE-LC-MS) in male rats dosed once daily over 28 days (OECD 407)
Format: in vivo, rat
Conditions: high dose; for Mannose: Table 15c
Outline: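 Metabolites were measured by GC-MS (derivatised) and reversed-phase LC-MS, with steroids by online SPE-LC-MS, in plasma drawn from fasted rats on days 7, 14 and 28 of once-daily dosing (5/sex/group). Values are ratios versus sex-matched untreated controls, normalized to pool samples, with Welch-test p-values.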

SMILES: C[C@]12CCC(=O)C=C1CC[C@@H]1[C@@H]2CC[C@@]2(C)[C@H]1CC[C@]2(C)O [17-alpha-Methyltestosterone]
- Mannose (m7, male rats): 1.14 *
- 3,4-Dihydroxyphenylacetic acid (DOPAC) (m7, male rats, Table 15d): 0.6 *
- 18-Hydroxy-11-deoxycorticosterone (m7, male rats, Table 15d): 0.35 *
- Glycerol phosphate, lipid fraction (m7, male rats, Table 15d): 0.28 *
- Homovanillic acid (HVA) (m7, male rats, Table 15d): 0.74 *
- Lysophosphatidylcholine (C18:1) (m7, male rats, Table 15d): 0.66 *
- Lysophosphatidylethanolamine (C22:5) (m7, male rats, Table 15d): 0.77 *
- Phosphate, lipid fraction (m7, male rats, Table 15d): 0.51 *
- Phosphatidylcholine (C18:0,C18:1) (m7, male rats, Table 15d): 0.78
- Sphingomyelin (d18:1, C16:0) (m7, male rats, Table 15d): 0.34 *
- Sphingomyelin (d18:1,C23:0) (m7, male rats, Table 15d): 0.49 *
- Sphingomyelin (d18:1,C24:0) (m7, male rats, Table 15d): 0.46 *
- Sphingomyelin (d18:2,C18:0) (m7, male rats, Table 15d): 0.4
- TAG No 02 (m7, male rats, Table 15d): 0.41 *
- myo-Inositol, lipid fraction (m7, male rats, Table 15d): 0.4 *
- Cholesterol (m7, Table 14b): 0.29
- Choline plasmalogen No 02 (m7, Table 14b): 0.55
- Lignoceric acid (C24:0) (m7, Table 14b): 0.28
- Sphingomyelin (d18:1, C16:0) (m7, Table 14b): 0.34
- Sphingomyelin (d18:2, C16:0) (m7, Table 14b): 0.39
- erythro-Sphingosine (d18:1) (m7, Table 14b): 0.17
- Mannose (m14, male rats): 1.03
- 3,4-Dihydroxyphenylacetic acid (DOPAC) (m14, male rats, Table 15d): 0.69 *
- 18-Hydroxy-11-deoxycorticosterone (m14, male rats, Table 15d): 0.94
- Glycerol phosphate, lipid fraction (m14, male rats, Table 15d): 0.63 *
- Homovanillic acid (HVA) (m14, male rats, Table 15d): 0.68 *
- Lysophosphatidylcholine (C18:1) (m14, male rats, Table 15d): 0.78 *
- Lysophosphatidylethanolamine (C22:5) (m14, male rats, Table 15d): 0.88 *
- Phosphate, lipid fraction (m14, male rats, Table 15d): 0.64 *
- Phosphatidylcholine (C18:0,C18:1) (m14, male rats, Table 15d): 0.69 *
- Sphingomyelin (d18:1, C16:0) (m14, male rats, Table 15d): 0.28 *
- Sphingomyelin (d18:1,C23:0) (m14, male rats, Table 15d): 0.76
- Sphingomyelin (d18:1,C24:0) (m14, male rats, Table 15d): 0.47 *
- Sphingomyelin (d18:2,C18:0) (m14, male rats, Table 15d): 0.31 *
- TAG No 02 (m14, male rats, Table 15d): 0.3 *
- myo-Inositol, lipid fraction (m14, male rats, Table 15d): 0.49 *
- Cholesterol (m14, Table 14b): 0.41
- Choline plasmalogen No 02 (m14, Table 14b): 0.64
- Lignoceric acid (C24:0) (m14, Table 14b): 0.39
- Sphingomyelin (d18:1, C16:0) (m14, Table 14b): 0.28
- Sphingomyelin (d18:2, C16:0) (m14, Table 14b): 0.38
- erythro-Sphingosine (d18:1) (m14, Table 14b): 0.21
- Mannose (m28, male rats): 1.2 *
- 3,4-Dihydroxyphenylacetic acid (DOPAC) (m28, male rats, Table 15d): 0.74
- 18-Hydroxy-11-deoxycorticosterone (m28, male rats, Table 15d): 0.55 *
- Glycerol phosphate, lipid fraction (m28, male rats, Table 15d): 0.47 *
- Homovanillic acid (HVA) (m28, male rats, Table 15d): 0.92
- Lysophosphatidylcholine (C18:1) (m28, male rats, Table 15d): 0.73 *
- Lysophosphatidylethanolamine (C22:5) (m28, male rats, Table 15d): 0.77 *
- Phosphate, lipid fraction (m28, male rats, Table 15d): 0.6 *
- Phosphatidylcholine (C18:0,C18:1) (m28, male rats, Table 15d): 0.7 *
- Sphingomyelin (d18:1, C16:0) (m28, male rats, Table 15d): 0.27 *
- Sphingomyelin (d18:1,C23:0) (m28, male rats, Table 15d): 0.48 *
- Sphingomyelin (d18:1,C24:0) (m28, male rats, Table 15d): 0.44 *
- Sphingomyelin (d18:2,C18:0) (m28, male rats, Table 15d): 0.36 *
- TAG No 02 (m28, male rats, Table 15d): 0.34 *
- myo-Inositol, lipid fraction (m28, male rats, Table 15d): 0.51 *
- Cholesterol (m28, Table 14b): 0.39
- Choline plasmalogen No 02 (m28, Table 14b): 0.49
- Lignoceric acid (C24:0) (m28, Table 14b): 0.19
- Sphingomyelin (d18:1, C16:0) (m28, Table 14b): 0.27
- Sphingomyelin (d18:2, C16:0) (m28, Table 14b): 0.37
- erythro-Sphingosine (d18:1) (m28, Table 14b): 0.19
